Measured values: PMC5333415, “Enhancement of scutellarin oral delivery efficacy by vitamin B12-modified amphiphilic chitosan derivatives to treat type II diabetes induced-retinopathy” (Journal of Nanobiotechnology, 2017)
≈ marks a conversion by molar mass, not a printed value. Read-outs that look alike come from different tables or passages of the source.

Tests used:
[1] = Pharmacokinetics study in vivo, single oral dose; conditions: male, Sprague-Dawley, rat, rats, oral gavage, scutellarin dose 40 mg/kg, n = 6, mean ± SD; for half-life: plasma, po, 40 mg/kg
Method: Male Sprague–Dawley rats (weighing 220–250 g) were fasted for 12 h, but allowed water ad libitum the day before drug administration. Scutellarin, Chit-DC-Scu, and Chit-DC-VB12-Scu were resuspended in PBS and administered to rats (at the same scutellarin dose of 40 mg/kg) by oral gavage. Blood samples (0.2 ml) were collected from the tail vein of each rat before dosing and at 0.25, 0.5, 0.75, 1, 2, 3, 5, 8, 12, 24 h post-dosing. An equal volume of 0.9% saline solution was injected after each collection. Plasma samples were obtained by centrifugation at 10,000 rpm for 10 min immediately after blood collection and were stored at −20 °C until analysis. HPLC (Agilent 1100, USA) was used to determine the concentration of scutellarin in plasma.

[2] = test system: central retinal artery of type II diabetic rats; assay: Color Doppler sonography of central retinal vasculature, type 2 diabetic model; type: in vivo, Sprague–Dawley rats; conditions: 40 mg/kg/day scutellarin
Method: (§1) Type 2 diabetes was induced in male Sprague–Dawley rats (weighing 230–250 g, Experimental Animal Center of Sun Yat-sen University, China. Certificate No: SCXK (Q) 2011-0029). All animals were housed five per cage in a room and maintained at a constant temperature (22 °C) under a 12/12 h light/dark cycle. All procedures were carried out according to the National Institutes of Health Guide for Care and Use of Laboratory Animals and were approved by the Bioethics Committee of Sun Yat-sen University. Rats were randomly assigned to a control group, a Scu group (normal rats with 40 mg/kg/day scutellarin treatments), and five type II diabetes model groups (n = 8/group). The control and Scu groups were fed for 16 weeks on regular standard diets, while rats from type II diabetes model groups (T2D) were fed a high-fat (HFS, Guangdong Medical Laboratory Animal Center, Guangzhou, China) diet for 16 weeks that consisted of 30% from total kcal from fats, 55% from carbohydrates and 15% from protein. After 8 weeks on the HFS diet, rats in the T2D groups were fasted overnight and each rat received a single intraperitoneal injection of streptozotocin (STZ, Sigma, USA) at a dose of 30 mg/kg body weight the following morning while the rats in the control group were injected with an equal volume of citrate buffer. The STZ was freshly diluted in citrate buffer (0.1 mol/l, pH 4.0). After the injection, the HFS diet feeding was continued. Blood glucose and body weight were monitored 3 days after the STZ or citrate buffer injection, and once a week thereafter. […]
Prior to sacrifice, all rats were anesthetized and color Doppler sonography analysis of the right eye was performed. […] At least three measurements were recorded for each animal and the mean of the three readings was taken as the representative value. The resistivity index (RI) of the central retinal artery (CRA) was calculated by subtracting the diastolic velocity (DV) from the peak systolic velocity (SV) and then dividing by the systolic velocity [(SV − DV)/SV] […]

Solubility = type: physicochemical
VEGF = assay: Western blot of retinal homogenates, VEGF; type: in vivo, Sprague–Dawley rats; conditions: diabetic rats, 40 mg/kg/day scutellarin, 8 weeks, compared to diabetic rats treated with or without Chit-DC
Method: as §1, with “After 8 weeks on the HFS diet, rats in the T2D groups were fasted overnight and each rat received a single intraperitoneal injection of streptozotocin (STZ, Sigma, USA) at a dose of 30 mg/kg body weight the following morning while the rats in the control group were injected with an equal volume of citrate buffer. The STZ was freshly diluted in citrate buffer (0.1 mol/l, pH 4.0). After the injection, the HFS diet feeding was continued.” left out

[3] = Caco-2 cell permeability (AP to BL transport); type: in vitro ADME, human; conditions: human; Caco-2 monolayers, 10 μg/ml scutellarin, without IF; read-out: Papp, AP side to BL side
Method: (§2) Caco-2 cells were seeded in 12-well transport inserts at a density of 2 × 10^5 cells/cm^2 in DMEM. Cells were maintained at 37 °C in a humidified atmosphere containing 5% CO2 for 21 days. Monolayers with transendothelial electrical resistance values above 300 Ω cm^2 were used in this study. On the day of the transport experiments, the culture medium was replaced with hank’s balanced salt solution (HBSS). Before the assay, Caco-2 cells monolayers was rinsed twice and incubated with the transport medium for an hour. After removing the transport medium, scutellarin, Chit-DC-Scu, Chit-DC-VB12-Scu (10 μg/ml scutellarin) alone or in the presence of IF ([…], 20 μl of a 100 IU/ml solution) were add to the apical side (0.5 ml) and 1.5 ml DMEM was added to the basolateral side of Transwell inserts. Cells were maintained at 37 °C in a humidified atmosphere containing 5% CO2 with orbital shaking at 50 rpm throughout the assay. At pre-determined intervals of 0, 30, 60, 90 and 120 min, 50 μl of transport buffer at the basolateral side was collected and mixed with the same volume of methanol, and an equal amount of DMEM was instantly added to the basolateral side to maintain a constant dissolution volume. The assay was performed in triplicate. Concentrations of scutellarin, Chit-DC-Scu and Chit-DC-VB12-Scu in corresponding samples were assessed by HPLC [35, 36].

Caco-2 cell monolayers = assay: Caco-2 cell permeability (AP to BL transport); type: in vitro ADME, human; conditions: estimated from Papp based on the previous research
Method: as §2

VEGFR2 = assay: Western blot of retinal homogenates, VEGFR2; type: in vivo, Sprague–Dawley rats; conditions: diabetic rats, 40 mg/kg/day scutellarin, 8 weeks, compared to diabetic rats treated with or without Chit-DC
Method: as §1, with “After 8 weeks on the HFS diet, rats in the T2D groups were fasted overnight and each rat received a single intraperitoneal injection of streptozotocin (STZ, Sigma, USA) at a dose of 30 mg/kg body weight the following morning while the rats in the control group were injected with an equal volume of citrate buffer. The STZ was freshly diluted in citrate buffer (0.1 mol/l, pH 4.0). After the injection, the HFS diet feeding was continued.” left out

[4] = test system: retina of type II diabetic rats; assay: Retinal histopathology (hematoxylin and eosin), type 2 diabetic model; type: in vivo, Sprague–Dawley rats; conditions: 40 mg/kg/day scutellarin
Method: as §1, with “After 8 weeks on the HFS diet, rats in the T2D groups were fasted overnight and each rat received a single intraperitoneal injection of streptozotocin (STZ, Sigma, USA) at a dose of 30 mg/kg body weight the following morning while the rats in the control group were injected with an equal volume of citrate buffer. The STZ was freshly diluted in citrate buffer (0.1 mol/l, pH 4.0). After the injection, the HFS diet feeding was continued.” left out

vWF = assay: Western blot of retinal homogenates, vWF; type: in vivo, Sprague–Dawley rats; conditions: diabetic rats, 40 mg/kg/day scutellarin, 8 weeks, compared to diabetic rats treated with or without Chit-DC
Method: as §1, with “After 8 weeks on the HFS diet, rats in the T2D groups were fasted overnight and each rat received a single intraperitoneal injection of streptozotocin (STZ, Sigma, USA) at a dose of 30 mg/kg body weight the following morning while the rats in the control group were injected with an equal volume of citrate buffer. The STZ was freshly diluted in citrate buffer (0.1 mol/l, pH 4.0). After the injection, the HFS diet feeding was continued.” left out

[5] = cited from earlier work
[6] = test system: membranes over expressing several common transporters; parameters: method as in PMID 27586020; conditions: cited from earlier work
[7] = T2D rats, intragastric, 8 weeks, compared to DM rats

Structure (SMILES)	half-life ([1]; read-out: T1/2(α) (converted)) [h]	half-life ([1]; read-out: T1/2(β) (converted)) [h]	Cmax ([1]; plasma scutellarin) [ng/mL]	Tmax ([1]; plasma scutellarin) [h]	retinal blood flow velocity [2, 7]	retinal resistivity index (RI) [2, 7]	blood flow velocity or RI in normal rats ([2]; normal (non-diabetic) rats)	solubility in distilled water (Solubility; distilled water)	solubility in methanol and PBS solution (Solubility; methanol and PBS solution (pH7.2))	expression of VEGF in the retina (VEGF)	Papp at 120 min, 10 μg/ml [3] [×10⁻⁶ cm/s]	scutellarin absorbed by the small intestine (Caco-2 cell monolayers)	expression of VEGFR2 in the retina (VEGFR2)	retinal morphology (HE staining) in normal rats [4]	expression of vWF in the retina (vWF)	water solubility [5] [µg/mL]	increase of Papp(AP-BL) [6] [fold]	water solubility of triamcinolone acetonide acetate ([5]; free drug versus loaded in deoxycholic acid-modified chitosan nanoparticles) [µg/mL]
O=C(O)[C@H]1O[C@@H](Oc2cc3oc(-c4ccc(O)cc4)cc(=O)c3c(O)c2O)[C@H](O)[C@@H](O)[C@@H]1O [Scu, 4′,5,6-trihydroxyflavone-7-O-glucuronide]	0.405 ± 0.055	1.88 ± 0.105	129 ± 85.5	1.24 ± 0.025	increased blood flow velocities	reduced retinal RI values	No significant changes in blood flow velocity or RI	poorly dissolved	soluble	downregulated	0.32	about 1%	downregulated	continuous with normal capillary structure	downregulated	160 (≈ 346 µM)	3.5	
CC(=O)OCC(=O)[C@@]12OC(C)(C)O[C@@H]1C[C@H]1[C@@H]3CCC4=CC(=O)C=C[C@]4(C)[C@@]3(F)[C@@H](O)C[C@@]12C [triamcinolone acetonide acetate]																		300
